# Assay results as given in patent US11051515B2, “3-acyl-benzamides and their use as herbicides” (Bayer Aktiengesellschaft, priority 2017, dated 2021).
# Experiments:
# AVEFA [1] = assay: Pre-emergence action against AVEFA; type: in vivo, Avena fatua; conditions: dosage 320 g/ha, scored visually after 3 weeks vs untreated controls
# Procedure, shortened: (§1)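 Seeds sown in sandy loam in wood-fiber pots and covered with soil. Greenhouse growth; visual damage scored after 3 weeks versus untreated controls (100% = dead, 0% = like control).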
# DIGSA [2] = assay: Pre-emergence action against DIGSA; type: in vivo, Digitaria sanguinalis; conditions: dosage 320 g/ha, scored visually after 3 weeks vs untreated controls
# Procedure, shortened: as §1
# ALOMY [3] = assay: Pre-emergence action against ALOMY; type: in vivo, Alopecurus myosuroides; conditions: dosage 320 g/ha, pre-emergence, scored visually after 3 weeks vs untreated controls, 100% = plants have died, 0% = like control plants
# Procedure, shortened: as §1
# ABUTH [4] = assay: Post-emergence action against ABUTH; type: in vivo, Abutilon theophrasti; conditions: post-emergence, dosage 80 g/ha, visual assessment about 3 weeks after treatment vs untreated controls
# Procedure, shortened: (§2)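 Post-emergence foliar spray on greenhouse plants at the one-leaf stage, using wettable-powder or emulsion-concentrate formulations in water (600 to […], plus 0.2% wetting agent). Damage scored by eye roughly 3 weeks later against untreated plants: 0% = like control, 100% = dead.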
# AVEFA [5] = assay: Post-emergence action against AVEFA; type: in vivo, Avena fatua; conditions: post-emergence, dosage 80 g/ha, visual assessment about 3 weeks after treatment vs untreated controls
# Procedure, shortened: as §2
# VIOTR [6] = assay: Pre-emergence action against VIOTR; type: in vivo, Viola tricolor; conditions: Dosage 320 g/ha, pre-emergence
# Procedure, shortened: as §1
# POLCO [7] = assay: Post-emergence action against POLCO; type: in vivo, Polygonum convolvulus; conditions: post-emergence, dosage 80 g/ha
# Procedure, shortened: as §2
# PHBPU [8] = assay: Pre-emergence action against PHBPU; type: in vivo, Pharbitis purpurea; conditions: Dosage 320 g/ha, pre-emergence
# Procedure, shortened: as §1
# SETVI [9] = assay: Pre-emergence action against SETVI; type: in vivo, Setaria viridis; conditions: pre-emergence, dosage 320 g/ha, scored visually after 3 weeks vs untreated controls
# Procedure, shortened: as §1
# MATIN [10] = assay: Pre-emergence action against MATIN; type: in vivo, Matricaria inodora; conditions: Dosage 320 g/ha, pre-emergence
# Procedure, shortened: as §1
# VERPE [11] = assay: Post-emergence action against VERPE; type: in vivo, Veronica persica; conditions: dosage 80 g/ha
# Procedure, shortened: as §2
# PHBPU [12] = assay: Post-emergence action against PHBPU; type: in vivo, Pharbitis purpurea; conditions: post-emergence, dosage 80 g/ha
# Procedure, shortened: as §2
# SETVI [13] = assay: Post-emergence action against SETVI; type: in vivo, Setaria viridis; conditions: post-emergence, dosage 80 g/ha, visual assessment about 3 weeks after treatment vs untreated controls
# Procedure, shortened: as §2
# ALOMY [14] = assay: Post-emergence action against ALOMY; type: in vivo, Alopecurus myosuroides; conditions: Dosage 80 g/ha, post-emergence
# Procedure, shortened: as §2
# VIOTR [15] = assay: Post-emergence action against VIOTR; type: in vivo, Viola tricolor; conditions: post-emergence, dosage 80 g/ha
# Procedure, shortened: as §2
# HORMU = assay: Pre-emergence action against HORMU; type: in vivo, Hordeum murinum; conditions: Dosage 320 g/ha
# Procedure, shortened: as §1
# AMARE [16] = assay: Post-emergence action against AMARE; type: in vivo, Amaranthus retroflexus; conditions: post-emergence, dosage 80 g/ha, visual assessment about 3 weeks after treatment vs untreated controls
# Procedure, shortened: as §2
# STEME [17] = assay: Post-emergence action against STEME; type: in vivo, Stellaria media; conditions: post-emergence, dosage 80 g/ha
# Procedure, shortened: as §2
# ABUTH [18] = assay: Pre-emergence action against ABUTH; type: in vivo, Abutilon theophrasti; conditions: pre-emergence, dosage 320 g/ha, scored visually after 3 weeks vs untreated controls
# Procedure, shortened: as §1
# LOLRI = assay: Pre-emergence action against LOLRI; type: in vivo, Lolium rigidum; conditions: dosage 320 g/ha, scored visually after 3 weeks vs untreated controls
# Procedure, shortened: as §1
# MATIN [19] = assay: Post-emergence action against MATIN; type: in vivo, Matricaria inodora; conditions: post-emergence, dosage 80 g/ha, visual assessment about 3 weeks after treatment vs untreated controls
# Procedure, shortened: as §2
# STEME [20] = assay: Pre-emergence action against STEME; type: in vivo, Stellaria media; conditions: Dosage 320 g/ha, pre-emergence
# Procedure, shortened: as §1
# AMARE [21] = assay: Pre-emergence action against AMARE; type: in vivo, Amaranthus retroflexus; conditions: pre-emergence, dosage 320 g/ha, scored visually after 3 weeks vs untreated controls
# Procedure, shortened: as §1
# DIGSA [22] = assay: Post-emergence action against DIGSA; type: in vivo, Digitaria sanguinalis; conditions: dosage 80 g/ha, visual assessment about 3 weeks after treatment vs untreated controls
# Procedure, shortened: as §2
# VERPE [23] = assay: Pre-emergence action against VERPE; type: in vivo, Veronica persica; conditions: Dosage 320 g/ha, pre-emergence
# Procedure, shortened: as §1
# ECHCG [24] = assay: Pre-emergence action against ECHCG; type: in vivo, Echinochloa crus-galli; conditions: pre-emergence, dosage 320 g/ha, scored visually after 3 weeks vs untreated controls
# Procedure, shortened: as §1
# ECHCG [25] = assay: Post-emergence action against ECHCG; type: in vivo, Echinochloa crus-galli; conditions: post-emergence, dosage 80 g/ha, visual assessment about 3 weeks after treatment vs untreated controls
# Procedure, shortened: as §2
# POLCO [26] = assay: Pre-emergence action against POLCO; type: in vivo, Polygonum convolvulus; conditions: Fallopia convolvulus, 504 h; Dosage 320 g/ha, pre-emergence
# Procedure, shortened: as §1
compound,measurement,setting,value
CCCC(=O)c1c(C(F)(F)F)ccc(C(=O)Nc2nnnn2CC)c1C [2-16],Pre-emergence action against AVEFA (herbicidal activity),AVEFA [1],90%
same,Pre-emergence action against DIGSA (herbicidal activity),DIGSA [2],100%
same,Pre-emergence action against ALOMY (herbicidal activity in percent),ALOMY [3],90%
same,Post-emergence action against ABUTH (herbicidal action in percent),ABUTH [4],100%
same,Post-emergence action against AVEFA (herbicidal action in percent),AVEFA [5],90%
same,Pre-emergence action against VIOTR,VIOTR [6],90%
same,Post-emergence action against POLCO,POLCO [7],80
same,Pre-emergence action against PHBPU,PHBPU [8],90%
same,"SETVI (Table B8, pre-emergence herbicidal activity)",SETVI [9],90%
same,Pre-emergence action against MATIN,MATIN [10],90%
same,Post-emergence action against VERPE,VERPE [11],80
same,Post-emergence action against PHBPU,PHBPU [12],100
same,Post-emergence action against SETVI (herbicidal action in percent),SETVI [13],90%
same,Post-emergence action against ALOMY,ALOMY [14],80%
same,Post-emergence action against VIOTR,VIOTR [15],100
same,Pre-emergence action against HORMU,HORMU,80%
same,Post-emergence action against AMARE (herbicidal action in percent),AMARE [16],100%
same,Post-emergence action against STEME,STEME [17],100
same,Pre-emergence action against ABUTH (herbicidal activity),ABUTH [18],100%
same,Pre-emergence action against LOLRI (herbicidal activity),LOLRI,90%
same,Post-emergence action against MATIN (herbicidal action in percent),MATIN [19],100%
same,Pre-emergence action against STEME,STEME [20],90%
same,Pre-emergence action against AMARE (herbicidal activity),AMARE [21],100%
same,Post-emergence action against DIGSA (herbicidal action in percent),DIGSA [22],90%
same,Pre-emergence action against VERPE,VERPE [23],100%
same,Pre-emergence action against ECHCG (herbicidal activity),ECHCG [24],100%
same,Post-emergence action against ECHCG (herbicidal action in percent),ECHCG [25],90%
CC(=O)C(=O)c1c(C(F)(F)F)ccc(C(=O)Nc2nnnn2C)c1Cl [1-146],pest or weed control at 320 g/ha,"AVEFA [1]; Avena fatua, 504 h, read-out: Pre-emergence action against AVEFA (herbicidal activity)",90%
same,Pre-emergence action against DIGSA (herbicidal activity),DIGSA [2],100%
same,pest or weed control at 320 g/ha,"ALOMY [3]; Alopecurus myosuroides, 504 h, read-out: Pre-emergence action against ALOMY (herbicidal activity in percent)",90%
same,pest or weed control at 80 g/ha,"ABUTH [4]; Abutilon theophrasti, 504 h, read-out: Post-emergence action against ABUTH (herbicidal action in percent)",100%
same,pest or weed control at 320 g/ha,"VIOTR [6]; Viola tricolor, 504 h",100%
same,pest or weed control at 320 g/ha,"PHBPU [8]; Ipomoea purpurea, 504 h",90%
same,pest or weed control at 320 g/ha,"SETVI [9]; Setaria viridis, 504 h, read-out: SETVI (Table B8, pre-emergence herbicidal activity)",100%
same,pest or weed control at 320 g/ha,"MATIN [10]; Tripleurospermum inodorum, 504 h",100%
same,pest or weed control at 80 g/ha,"VERPE [11]; Veronica persica, 504 h",90%
same,pest or weed control at 320 g/ha,POLCO [26],80%
same,pest or weed control at 80 g/ha,"PHBPU [12]; Ipomoea purpurea, 504 h",80%
same,pest or weed control at 80 g/ha,"SETVI [13]; Setaria viridis, 504 h, read-out: Post-emergence action against SETVI (herbicidal action in percent)",100%
same,pest or weed control at 80 g/ha,"VIOTR [15]; Viola tricolor, 504 h",90%
same,pest or weed control at 320 g/ha,"HORMU; Hordeum murinum, 504 h",80%
same,pest or weed control at 80 g/ha,"AMARE [16]; Amaranthus retroflexus, 504 h, read-out: Post-emergence action against AMARE (herbicidal action in percent)",100%
same,pest or weed control at 80 g/ha,"STEME [17]; Stellaria media, 504 h",100%
same,pest or weed control at 320 g/ha,"ABUTH [18]; Abutilon theophrasti, 504 h, read-out: Pre-emergence action against ABUTH (herbicidal activity)",100%
same,pest or weed control at 80 g/ha,"MATIN [19]; Tripleurospermum inodorum, 504 h, read-out: Post-emergence action against MATIN (herbicidal action in percent)",90%
same,pest or weed control at 320 g/ha,"STEME [20]; Stellaria media, 504 h",100%
same,pest or weed control at 320 g/ha,"AMARE [21]; Amaranthus retroflexus, 504 h, read-out: Pre-emergence action against AMARE (herbicidal activity)",100%
same,Post-emergence action against DIGSA (herbicidal action in percent),DIGSA [22],80%
same,pest or weed control at 320 g/ha,"VERPE [23]; Veronica persica, 504 h",90%
same,pest or weed control at 320 g/ha,"ECHCG [24]; Echinochloa crus-galli, 504 h, read-out: Pre-emergence action against ECHCG (herbicidal activity)",100%
same,pest or weed control at 80 g/ha,"ECHCG [25]; Echinochloa crus-galli, 504 h, read-out: Post-emergence action against ECHCG (herbicidal action in percent)",100%
